{"source": "patent US20050020483A1", "about": "“Sigma ligands for neuronal regeneration and functional recovery” (priority 2003, published 2005)", "key": {"[1]": {"system": "sigma-1 site compared to the sigma-2 site", "details": "(+) isomers of benzomorphan opiates; cited from earlier work"}, "[2]": {"system": "SHR (spontaneous hypertensive) rats, stroke by MCA occlusion", "test": "Rotating pole or cylinder test after MCA occlusion (Example 1)", "format": "in vivo, rat", "details": "0.03-10 mg/kg s.c. or p.o. from two days after MCAO for 2-8 weeks; present-tense example", "excerpt": "Male 3 months old SHR (spontaneous hypertensive) rats are used for induction of stroke by MCA occlusion. This is the preferred strain since most stroke patients are hypertensive. The animals are anesthetized with Methohexital and a small craniectomy is made above the zygmotic arch to expose the middle cerebral artery, which is occluded with a 10-0 monofilament nylon thread distal to the origin of the striatal branches. The rats are not intubated and no catheters are inserted. Following MCA occlusion a large and reproducible infarct is obtained, leading to a robust sensorimotor deficit. The animals are kept on a 6 hr light/18 h dark cycle with free access to food and water. At two days after the MCAO the rats are treated with the compound I, II, III, IV, V, VI, VII, VIII, or IX (0.03-10 mg/kg) s.c. or p.o. and a control group is given saline for 2-8 weeks. At 2, 4, 6 and 8 weeks animals are tested in the rotating pole or cylinder test\n(§1) The cylinder test (modified from Schallert and Tillerson (Innovative models of CNS disease: from molecule to therapy. Clifton, N.J., Humana, 1999) is used to quantify the forelimb use for rearing on the cylinder wall. The rats are monitored as they move freely in a 20-cm-wide clear glass cylinder. Contacts made by each forepaw with the cylinder wall while rearing are scored by a blinded observer. A total of 20 contacts are recorded for each animal, and the number of impaired (left), both, and non-impaired forelimb contacts as percentage of total contacts is calculated. Baseline for rats is achieved by measuring the contacts made by each forepaw before MCAO."}, "[3]": {"system": "NMDA-induced toxicity and seizures", "details": "in vivo models; cited from earlier work"}, "[4]": {"system": "spontaneously hypertensive rats exposed to permanent middle artery occlusion (MCAO)", "test": "Rotating pole test after permanent MCAO (Example 2)", "format": "in vivo, rat", "details": "rotating pole score 0-6", "excerpt": "A score of 6-0 is given for each direction:\n6, the animal crosses the pole with no foot slips;\n5, the animal crosses the pole with a few foot slips;\n4, the animal crosses the pole, slipping 50% of the footsteps;\n3, the animal crosses the pole with more than 50% foot slips;\n2, the animal walks a bit and then rotates around the pole;\n1, the animal rotates around the pole without crossing it;\n0, the animal falls off the pole.\nThirty five spontaneously hypertensive rats were exposed to permanent middle artery occlusion (MCAO), then divided into three treatment groups. Starting at two days after occlusion and continuing daily until 28 days after occlusion, SA4503 was administered s.c. in doses of 0.3 mg/kg (12 rats) or 1.0 mg/kg (12 rats). In a control group (11 rats), vehicle only was administered. At the start of treatment, and at several time points during the test, the rats were assessed for their performance in the rotating pole model. This model is described in Example 1. It requires the rats to cross a horizontally suspended rotating pole having a length of 1 m. This task measures the sensory-motor performance of the animals. The animals' behaviour was recorded using a video camera and later analyzed and scored by a trained technician. The scoring ranges from 0 to 6, with 0 being very poor performance and 6 reflecting the performance of a healthy animal (without MCAO)."}, "[5]": {"system": "cultured rat retinal neurons", "details": "cited from earlier work"}, "[6]": {"system": "rat primary neuronal cultures", "details": "cited from earlier work"}, "[7]": {"system": "spontaneously hypertensive rats exposed to permanent middle artery occlusion (MCAO)", "test": "Cylinder test for asymmetric forelimb use after permanent MCAO (Example 2)", "format": "in vivo, rat", "details": "0.3 mg/kg; all time points measured", "experimental": "as §1\nForty three spontaneously hypertensive rats were exposed to permanent middle artery occlusion (MCAO), then divided into three treatment groups. […] At the start of treatment, and at several time points during the test, the rats were assessed for their performance in the cylinder test. […] The performance of the rats in the test was assessed one day before permanent MCAO, then at 14 days, 28 days and 59 days after permanent MCAO. The rats were monitored as they moved freely in a 20 cm-wide clear glass cylinder. Contacts made by each forepaw with the cylinder wall while rearing were scored by a blinded observer. […]"}, "ischemia in gerbils": {"system": "ischemia in gerbils", "details": "cited from earlier work"}, "[8]": {"details": "hydrohalide salts, in particular the hydrochloride salt; cited from earlier work"}}}
{"compound": "CC(C)=CCN1CCC2(C)c3cc(O)ccc3CC1C2C", "note": "(single isomer, unassigned; (+)) [(+)pentazocine]", "values": [{"measurement": "affinity for the sigma-1 site compared to the sigma-2 site", "setting": "[1]", "value": "nearly two orders of magnitude higher affinity for the sigma-1 site"}]}
{"compound": "CCC(C/C=C/c1ccccc1)(c1ccccc1)N(C)CC1CC1", "note": "(single isomer, unassigned; (+)) [VI, (+)-N-(cyclopropylmethyl)-N-[1-ethyl-1,4-diphenyl-3(E)-butenyl]-N-methylamine]", "values": [{"measurement": "performance in the rotating pole test or the cylinder test versus control", "setting": "[2]", "value": "perform better than the group 1 control animals"}]}
{"compound": "OC(CCCN1CCN(c2ncc(F)cn2)CC1)c1ccc(F)cc1", "note": "(stereo not shown) [BMY-14802]", "values": [{"measurement": "protective effects against NMDA-induced toxicity and seizures", "setting": "[3]", "value": "consistent with affording protective effects"}]}
{"compound": "O=C(NC1CCN(Cc2ccccc2)CC1)c1ccc(I)cc1", "note": "[II, N-(N-benzylpiperidin-4-yl)-4-iodobenzaminde]", "values": [{"measurement": "performance in the rotating pole test or the cylinder test versus control", "setting": "[2]", "value": "perform better than the group 1 control animals"}]}
{"compound": "O=C(OCCN1CCOCC1)C1(c2ccccc2)CCCCC1", "note": "[III, 1-phenylcyclohexane-1-carboxylic acid-2-morpholinoethyl ester]", "values": [{"measurement": "performance in the rotating pole test or the cylinder test versus control", "setting": "[2]", "value": "perform better than the group 1 control animals"}]}
{"compound": "COc1ccc(CN2CCN(Cc3ccccc3)CC2)c(O)c1OC", "note": "[IX, N-benzyl-N′-(2-hydroxy-3,4-dimethoxybenzyl)-piperazine]", "values": [{"measurement": "performance in the rotating pole test or the cylinder test versus control", "setting": "[2]", "value": "perform better than the group 1 control animals"}]}
{"compound": "COc1ccc(CCN2CCN(CCCc3ccccc3)CC2)cc1OC", "note": "[SA4503, 1-(3,4-dimethoxyphenethyl)-4-(3-phenylpropyl) piperazine]", "values": [{"measurement": "performance in the rotating pole test or the cylinder test versus control", "setting": "[2]", "value": "perform better than the group 1 control animals"}, {"measurement": "total average score at day 30", "setting": "[4]; 0.3 mg/kg s.c.", "value": 5.2}, {"measurement": "Average Increase in Score at Day 30 (SEM)", "setting": "[4]; 0.3 mg/kg s.c. daily from day 2 to day 28 after MCAO", "value": "3.5 (SEM 0.4) (p < 0.05)"}, {"measurement": "Average Increase in Score at Day 30 (SEM)", "setting": "[4]; 1.0 mg/kg s.c. daily from day 2 to day 28 after MCAO", "value": "3.67 (SEM 0.48) (p < 0.05)"}, {"measurement": "activity against glutamate neurotoxicity", "setting": "[5]", "value": "active"}, {"measurement": "suppression of hypoxia/hypoglycemia-induced neurotoxicity", "setting": "[6]", "value": "significantly suppress"}, {"measurement": "asymmetry of paw usage", "setting": "[7]", "value": "reduced to pre-MCAO levels"}]}
{"compound": "COc1cccc2c1CCC(=O)N2CCCN1CCN(c2cccc(Cl)c2)CC1", "note": "[VII, 1-[3-[4-(3-chlorophenyl)piperazin-1-yl]propyl]-5-methoxy-1,2,3,4-tetrahydroquinolin-2-one]", "values": [{"measurement": "performance in the rotating pole test or the cylinder test versus control", "setting": "[2]", "value": "perform better than the group 1 control animals"}]}
{"compound": "CN(CCc1ccc(Cl)c(Cl)c1)[C@H]1CCCC[C@H]1N1CCCC1", "note": "[VIII, (−)-(1S, 2R)-N-[2-(3,4-dichlorophenyl)ethyl]-N-methyl-2-(pyrrolidin-1-yl) cyclohexylamine]", "values": [{"measurement": "performance in the rotating pole test or the cylinder test versus control", "setting": "[2]", "value": "perform better than the group 1 control animals"}]}
{"compound": "CCN(CC)CCOC(=O)C1(c2ccccc2)CCCC1", "note": "[caramiphen]", "values": [{"measurement": "protective effects against NMDA-induced toxicity and seizures", "setting": "[3]", "value": "consistent with affording protective effects"}]}
{"compound": "COCCCC/C(=N\\OCCN)c1ccc(C(F)(F)F)cc1", "note": "[fluvoxamine, 5-methoxy-4′-(trifluoromethyl)valerophenone O-(2-aminoethyl)oxime]", "values": [{"measurement": "performance in the rotating pole test or the cylinder test versus control", "setting": "[2]", "value": "perform better than the group 1 control animals"}]}
{"compound": "O=C(CCCN1CCC(O)(c2ccc(Cl)cc2)CC1)c1ccc(F)cc1", "note": "[haloperidol]", "values": [{"measurement": "protective effects against NMDA-induced toxicity and seizures", "setting": "[3]", "value": "consistent with affording protective effects"}]}
{"compound": "OCCN1CCN(CCCN2c3ccccc3C=Cc3ccccc32)CC1", "note": "[opipramol]", "values": [{"measurement": "protection against ischemia", "setting": "ischemia in gerbils", "value": "protect against ischemia"}]}
{"compound": "Fc1ccc(-n2cc(CCCCN3CCC4(CC3)OCc3ccccc34)c3ccccc32)cc1", "note": "[siramesine, 1′-[4-[1-(4-fluorophenyl)-1H-indol-3-yl]-1-butyl] spiro [isobenzofuran-1(3H),4′-piperidine]]", "values": [{"measurement": "performance in the rotating pole test or the cylinder test versus control", "setting": "[2]", "value": "perform better than the group 1 control animals"}, {"measurement": "bioavailability", "setting": "[8]", "value": "good bioavailability"}]}
{"compound": "(+)SKF 10,047", "values": [{"measurement": "affinity for the sigma-1 site compared to the sigma-2 site", "setting": "[1]", "value": "nearly two orders of magnitude higher affinity for the sigma-1 site"}]}
